According to the NIST ThermoML archive (doi:10.1016/j.jct.2016.07.009):
Numbers after ± are expanded uncertainties.

Tests used:
[1] = Crystal; DTA
[2] = Molar enthalpy of transition or fusion; details: Crystal; DSC

For Nc1ccc([N+](=O)[O-])cc1[N+](=O)[O-] [2,4-dinitroaniline], which Normal melting temperature [1] is on record?
Its Normal melting temperature is 178.1 ± 1.1 °C.

What about the “Molar enthalpy of transition or fusion” value [2] of the same compound?
Its value is 5.93 ± 0.227 kcal/mol.
